In PubChem BioAssay AID2060499 (Molecular Pharmacology Branch, DTP, NCI, 2025):

Test system: 777334-354-R2-J4-PDC tumor spheroids with HUVEC/MSC, viability
Assay: Anticancer human tumor 777334-354-R2-J4-PDC patient-derived pancreatic adenocarcinoma cell line growth inhibition [GQUAD]
Settings: for IC50: curve of first compound; for viability, T/C: stronger effect = lower value
Source text: DNA G-quadruplex Stabilizer Agents in Combinations in Complex Spheroids
A high-throughput screen of multi-cell type tumor spheroids was designed to identify active combinations of DNA G-quadruplex stabilizer agents and targeted small molecules. Complex spheroids include a stromal component modeled by human endothelial cells (HUVEC) and fibroblasts modeled by human mesenchymal stem cells (MSCs). The concentration ranges selected for each drug and investigational agent were based upon clinically achievable concentrations if the clinical Cmax of the agent was known.
Compounds. The drugs and investigational agents: pidnarulex (CX-5461; NSC782164), APTO-253 (NSC789042), BRACO-19 (NSC847499), peposertib (NSC802822), ceralasertib (NSC780249), elimusertib (NSC800525), camonsertib (NSC841442), AZD-1390 (NSC803789), olaparib (NSC753686), talazoparib (NSC767125), ART-558 (NSC835418), sotorasib (NSC818433), MRTX-1133 (NSC836407), SN-38 (NSC673596), topotecan (NSC609699), etoposide (NSC141540), doxorubicin (NSC123127), gemcitabine (NSC613327), 5-fluorouracil (NSC19893), paclitaxel (NSC125973), vemurafenib (NSC761431), panobinostat (NSC761190), R-306465 (JNJ-16241199; NSC773264), adavosertib (NSC754352), TP-3654 (NSC805149), carboplatin (NSC241240), KSQ-4279 (NSC840948), and staurosporine (NSC755774) were obtained from the National Cancer Institute (NCI) Developmental Therapeutics Program Chemical Repository (34). The FDA-approved anticancer drug set is available from the NCI Developmental Therapeutics Program. […] The stock solutions were prepared in dimethyl sulfoxide (DMSO, Sigma-Aldrich, St. Louis, MO, cat. D2650) at 800-fold the tested concentration and stored at -70 degrees C prior to their use. All drugs and investigational agents were tested over a range starting from a high concentration at or near the clinical Cmax and decreasing in half-log increments. If the clinical Cmax for an agent had not been determined, the highest concentration tested was 10 microM.
2.3 Cell Culture. All cells were maintained in an incubator at 37 degrees C and 5% CO2 with 95% humidity. The PDC lines were cultured according to standard operating procedures established by the NCI PDMR. All PDCs were thawed and cultured in Matrigel-coated flasks prepared with a working solution of 1X Ham's F-12 nutrient mix, without supplementation (Invitrogen, cat. 11765054), 100 U/mL penicillin-streptomycin (Invitrogen, cat. 15140122), and 2.5% Matrigel (Corning Inc., cat. 354248) for the first three passages. The 857933-349-R-J2-PDC line was cultured in 6C/Colon 1B media, which includes advanced DMEM/F-12 (Thermo Fisher Scientific, cat. 12634028), 10 mM HEPES (Thermo Fisher Scientific, cat. 15630080), 1X GlutaMAX supplement (Thermo Fisher Scientific, cat. 35050061), 0.1 mg/mL primocin (InvivoGen, cat. ant-pm-2), 10% defined fetal bovine serum, heat inactivated (HyClone Laboratories Inc., cat. SH30070.03HI), 50% L-WRN conditioned media (ATCC, cat. CRL-3276), 1.25 mM N-Acetyl-L-cysteine (Sigma-Aldrich, cat. A9165), 10 mM nicotinamide (Sigma-Aldrich, cat. N0636), 1X B-27 supplement (Thermo Fisher Scientific, cat. 17504044), 1X N-2 supplement (Thermo Fisher Scientific, cat. 17502048), 10 microM Y-27632 dihydrochloride (Tocris Bioscience, cat. 1254), and 50 ng/mL human EGF recombinant protein (Thermo Fisher Scientific, cat. PHG0311). The 485176-168-R4-J1-PDC line was cultured in Panc media, which includes all 6C/Colon 1B media components plus 100 ng/mL human FGF-10 (Thermo Fisher Scientific, cat. 100-26), 500 nM SB-431542 (Selleckchem, cat. S1067), and gastrin (Tocris, cat. 3006).
[…]
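Further: spheroids exposed to compounds for 7 days before readout.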

Question: What does the source list for Cn1ncnc1[C@H]1c2n[nH]c(=O)c3cc(F)cc(c23)N[C@@H]1c1ccc(F)cc1 + Cc1cnc(CNC(=O)c2c(=O)c3ccc(N4CCCN(C)CC4)nc3n3c2sc2ccccc23)cn1?
Answer: IC50 (second compound 0.0316 µM): > 316 nM; IC50 (second compound 0.1 µM): > 316 nM; IC50 (second compound 0.316 µM): > 316 nM; IC50 (second compound 1 µM): > 316 nM; IC50 (second compound 3.16 µM): > 316 nM; IC50 (second compound 10 µM): > 316 nM; viability, T/C (second compound 0.0316 µM, first compound 0.000999 µM): 97.7%; viability, T/C (second compound 0.0316 µM, first compound 0.00316 µM): 86.3%; viability, T/C (second compound 0.0316 µM, first compound 0.00999 µM): 96.8%; viability, T/C (second compound 0.0316 µM, first compound 0.0316 µM): 95%; viability, T/C (second compound 0.0316 µM, first compound 0.0999 µM): 104%; viability, T/C (second compound 0.0316 µM, first compound 0.316 µM): 88%; viability, T/C (second compound 0.1 µM, first compound 0.000999 µM): 86.4%; viability, T/C (second compound 0.1 µM, first compound 0.00316 µM): 72.6%; viability, T/C (second compound 0.1 µM, first compound 0.00999 µM): 90.8%; viability, T/C (second compound 0.1 µM, first compound 0.0316 µM): 86.2%; viability, T/C (second compound 0.1 µM, first compound 0.0999 µM): 94.5%; viability, T/C (second compound 0.1 µM, first compound 0.316 µM): 78.2%; viability, T/C (second compound 0.316 µM, first compound 0.000999 µM): 83.7%; viability, T/C (second compound 0.316 µM, first compound 0.00316 µM): 81.1%; viability, T/C (second compound 0.316 µM, first compound 0.00999 µM): 71.9%; viability, T/C (second compound 0.316 µM, first compound 0.0316 µM): 79.6%; viability, T/C (second compound 0.316 µM, first compound 0.0999 µM): 87.5%; viability, T/C (second compound 0.316 µM, first compound 0.316 µM): 68%; viability, T/C (second compound 1 µM, first compound 0.000999 µM): 77.7%; viability, T/C (second compound 1 µM, first compound 0.00316 µM): 74.1%; viability, T/C (second compound 1 µM, first compound 0.00999 µM): 64.4%; viability, T/C (second compound 1 µM, first compound 0.0316 µM): 71.3%; viability, T/C (second compound 1 µM, first compound 0.0999 µM): 76.5%; viability, T/C (second compound 1 µM, first compound 0.316 µM): 62.5%; viability, T/C (second compound 3.16 µM, first compound 0.000999 µM): 60.7%; viability, T/C (second compound 3.16 µM, first compound 0.00316 µM): 63.8%; viability, T/C (second compound 3.16 µM, first compound 0.00999 µM): 57.3%; viability, T/C (second compound 3.16 µM, first compound 0.0316 µM): 60.6%; viability, T/C (second compound 3.16 µM, first compound 0.0999 µM): 61%; viability, T/C (second compound 3.16 µM, first compound 0.316 µM): 54%; viability, T/C (second compound 10 µM, first compound 0.000999 µM): 52.1%; viability, T/C (second compound 10 µM, first compound 0.00316 µM): 58.4%; viability, T/C (second compound 10 µM, first compound 0.00999 µM): 58.2%; viability, T/C (second compound 10 µM, first compound 0.0316 µM): 68.7%; viability, T/C (second compound 10 µM, first compound 0.0999 µM): 56.1%; viability, T/C (second compound 10 µM, first compound 0.316 µM): 51.8%
